Literature values in patent publication US20020090642A1, “METHODS FOR DETERMINING THE PROGNOSIS OF BREAST CANCER USING ANTIBODIES SPECIFIC FOR THYMIDYLATE SYNTHASE” (priority 1995, published 2002).

System: TS
Conditions: 24 hours post-fluorouracil therapy, tumor biopsy samples

For `O=c1[nH]cc(F)c(=O)[nH]1` [fluorouracil], the “increase in TS” value is listed as 2- to 6 fold.
